Like-named read-outs stand apart in the source and are kept apart here.
What was measured:
[1] = system: cancer cells T47D, OVCAR-3, MDA-MB-231, MCF-7 and B16F10; experiment: MTT viability, all tested cancer cells (combination treatment study, FIG. 1A); type: cell-based; details: 48 h; for toxicity in cancer cells: 10 μM (1+10C: 10 μM+10 μM)
Method: FIG. 1A: The viability studies of cancer cells T47D, OVCAR-3, MDA-MB-231, MCF-7 and B16F10 after 48 h of continuous treatment with compound 1 (10 μM), 10C [cationic lipid control molecule not containing progesterone moiety]
(§1) Cytotoxicity assay of the different compounds were carried out by using 3-(4,5-dimethylthiazol-2-yl)-2,5-diphenyltetrazolium bromide (MTT). For this assay, 12-18 h before treatment cells were plated in 96-well plate at 5000 cells/well density. After incubation cells were treated continuously for 48 h with respective compounds at different concentration (2.5 μM-40 μM). After completion of the treatment, 10 μL of MTT solution (5 mg/mL) was added in each well and incubated for 4 h. Then the media was removed carefully, and the reduced MTT was dissolved in 1:1 (v/v) DMSO/Methanol and absorbance was measured using multimode reader (Synergy H1, BioTek). Results were represented as percentage of viability={[A550(treated cells)−background]/[A550(untreated cells)−background]}×100. The result was summarized and provided as IC50 table in Table 1.
(§2) For combination treatment effect, cells were plated in 96 well plates at 5000 cells/well. […] Following 48 h of treatment cell viability was measured following above mentioned MTT study.

B16F10 (PgR-negative) = experiment: Cell cycle assay by flow cytometry (PI), B16F10; type: cell-based, murine; details: B16F10, 10 μM, 24 h
Method: (§3) To measure the cellular DNA content, cell cycle assay was carried out. In this assay, first cells were synchronized at early S-phase by double thymidine blocking. When cell confluency was reached around 25-30% in 60 mm dish, cells were treated with 2 mM thymidine, diluted in 10% FBS containing DMEM, for 18 h to block cells at early S-phase. To release the blocking, media was discarded and washed with 1×PBS. Then the cells were incubated with fresh cell culture media containing 10% FBS for 9 h. After releasing, second blocking was done with 2 mM thymidine containing media for 17 h. After second blocking cells were released by discarding the thymidine supplemented media and kept in fresh media. All the respective treatments for cell cycle study were done after 2 h of second release.
(§4) S-phase synchronized cells were either kept untreated or treated with compound 1 (10 μM) and 6c (10 μM) for 24 h. Cells from different treatment groups were harvested, washed with 1×PBS, and fixed with 70% ethanol and kept at −20° C. for overnight. Then the ethanol was removed and washed with 1×PBS. […] After incubation cells were collected by centrifugation, washed with 1×PBS, re-suspended in 500 μL 1×PBS, and data was recorded using flow cytometer (FACS Canto II, Becton-Dickinson, San Jose, Calif., USA) and data were analyzed with FACS Diva software. […]

MDA-MB-231 = experiment: MTT cytotoxicity assay, MDA-MB-231; type: cell-based, human
Method: (§5) All cells were grown into mycoplasma free condition. […] All cells were grown up to 75-85% confluency after which cells were trypsinized, counted and seeded, in 96-well plates for cell viability studies, 6-well plates for apoptosis studies, 60 mm dish for cell cycle studies and in 25 cm^2 or 75 cm^2 tissue culture flasks for Western blot studies. The primary stock of the cationic progesterone molecules were made in cell culture grade DMSO and from that secondary stock was prepared by serial dilution with cell culture grade DMSO. The final working concentrations were prepared by diluting the secondary stock in cell culture media keeping the DMSO concentration in working solution below 0.2% with respect to cell culture medium. […] For this assay, 12-18 h before treatment cells were plated in 96-well plate at 5000 cells/well density. […] After completion of the treatment, 10 μL of MTT solution (5 mg/mL) was added in each well and incubated for 4 h. Then the media was removed carefully, and the reduced MTT was dissolved in 1:1 (v/v) DMSO/Methanol and absorbance was measured using multimode reader (Synergy H1, BioTek). Results were represented as percentage of viability={[A550(treated cells)−background]/[A550(untreated cells)−background]}×100. The result was summarized and provided as IC50 table in Table 1.

CHO = experiment: MTT cytotoxicity assay, CHO; type: cell-based, Chinese hamster; details: Cricetulus griseus, read-out: IC50 CHO
Method: as §5

T47D (PgR-positive) = experiment: Cell cycle assay by flow cytometry (PI), T47D; type: cell-based, human; details: 10 μM, 24 h
Method: as §3, §4

[2] = system: non-cancer cells CHO, COS-1 and NIH-3T3; experiment: MTT viability, tested non-cancer cells (combination treatment study, FIG. 1B); type: cell-based; details: 48 h; for toxicity in non-cancer cells: 10 μM (1+10C: 10 μM+10 μM)
Method: FIG. 1B: The viability studies of non-cancer cells CHO, COS-1 and NIIH-3T3 after 48 h of continuous treatment with compound 1 (10 μM), 10C [cationic lipid control molecule not containing progesterone moiety]
as §1, §2

B16F10 tumor = experiment: In vivo tumor study, B16F10 melanoma model; design: species or system C57BL6/J mice; details: 15 mg/Kg i.p., 5 injections
Method: 6-8 weeks old female C57BL6/J mice, obtained from CCMB (Hyderabad, India), were subcutaneously inoculated with 2.5×10^5 B16F10 cells in the lower left abdomen. Thirteen days after B16F10 cell inoculation, mice were grouped as per the treatment where each group contained 5 mice. The groups were as follows (i) untreated group, (ii) treated with progesterone (compound 1) (6 mg/Kg) and (iii) 6c (15 mg/Kg). Each compound suspended in PBS containing 10% DMSO and injected intraperitoneally to the respective mice. Five injections were given with a gap of 2 days. The tumor sizes were measured in volume (mm^3) and calculated using the formula (0.5ab^2), where ‘a’ represents the longest dimension and ‘b’ is the shortest dimension of the tumors. Experiment was terminated when the average tumor volume of the untreated group reached ˜4000 mm^3. All animal work was done following the protocols approved by Institutional Animal Ethical Committee of CSIR-IICT, India.

| SMILES | toxicity in cancer cells [1] | total cell population in G2/M phase (B16F10 (PgR-negative)) [%] | IC50 (MDA-MB-231; Homo sapiens, MDA-MB-231, MTT, 48 h continuous treatment, read-out: IC50 MDA-MB-231) [µM] | IC50 (CHO; MTT, 48 h continuous treatment, non-cancer cell) [µM] | total cell population in G2/M phase (T47D (PgR-positive)) [%] | toxicity in non-cancer cells [2] | cell killing in all tested cancer cells ([1]; 2.5 μM-40 μM) | IC50 (MDA-MB-231; Homo sapiens, MDA-MB-231, 48 h, read-out: IC50 MDA-MB-231, MTT, 48 h continuous treatment) [µM] | IC50 (MDA-MB-231; read-out: IC50 MDA-MB-231, MTT, 48 h continuous treatment) [µM] | IC50 (CHO; 48 h) [µM] | tumor growth and aggression versus UT and progesterone-treated groups (B16F10 tumor; B16F10 in C57BL6/J mice) | tumor size of UT group compared to treated group (B16F10 tumor; day 25 from tumor cell inoculation) [times] | toxicity towards tested non-cancer cells ([2]; 2.5 μM-40 μM) |
| --- | --- | --- | --- | --- | --- | --- | --- | --- | --- | --- | --- | --- | --- |
| CC(=O)[C@H]1CC[C@H]2[C@@H]3CCC4=CC(=O)CC[C@]4(C)[C@H]3CC[C@]12C [Compound 1, Progesterone] | did not impart any significant toxicity | 19 | > 20 | > 20 | 10 | did not impart any significant toxicity | – | – | – | – | – | – | – |
| CCCCCCCCCC[N+](C)(CCCCCCCCCC)CCNC(=O)CCC(=O)O[C@@H](C)[C@H]1CCC2C3CCC4=CC(=O)CC[C@]4(C)C3CC[C@@]21C (stereo partly drawn) [Compound 6c, N-decyl-N-(2-(4-((1S)-1-((10R,13S,17S)-10,13-dimethyl-3-oxo-2,3,6,7,8,9,10,11,12,13,14, 15,16,17-tetradecahydro-1H-cyclopenta[a]phenanthren-17-yl)ethoxy)-4-oxobutanamido)ethyl)-N-methyldecan-1-aminium chloride] | significant toxicity only in cancer cells | 33 | – | – | 38 | not in non-cancerous cell | significant amount of cell killing | 6.67 ± 0.27 | 3.63 ± 0.16 | 17.3 ± 0.29 | significant inhibition | ~4 | largely non-toxic |

Reference: US10100079B2, “Progesterone-cationic lipid hybrid as anticancer agent and the process of synthesis thereof” (Council of Scientific & Industrial Research, priority 2016, dated 2018)
